ChEMBL document CHEMBL1201862, “PubChem BioAssay data set” (2004)
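Assay format: 96-well plates, 48-hour exposure. GI50 = concentration required for 50% inhibition of growth.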 Calls of active or inactive are those of the source. Cut-off read from the data, not from the text of the source: active = GI50 up to about 1.1 µM and inactive = higher.

What was measured:
Test in all cases: DTP human tumour cell line panel, 48 h
OVCAR-3 = system: OVCAR-3
KM12 = system: KM12
HCT-15 = system: HCT-15
SNB-75 = system: SNB-75
BT-549 = system: BT-549
A498 = system: A498
SK-OV-3 = system: SK-OV-3
Malme-3M = system: Malme-3M
NCI-H226 = system: NCI-H226
CCRF-CEM = system: CCRF-CEM
MCF7 = system: MCF7
DU-145 = system: DU-145
OVCAR-5 = system: OVCAR-5
U-251 = system: U-251
HT-29 = system: HT-29
786-0 = system: 786-0
SF-268 = system: SF-268
SNB-19 = system: SNB-19
HOP-92 = system: HOP-92
TK-10 = system: TK-10

## COc1cccc2c1cc([N+](=O)[O-])c1c(C(=O)O)cc3c(c12)OCO3 [ARISTOLOCHIC ACID]
OVCAR-3
  GI50: 33.9 µM (inactive)
KM12
  GI50: 27.3 µM (inactive)
HCT-15
  GI50: 18.2 µM
SNB-75
  GI50: 30.9 µM (inactive)
BT-549
  GI50: 39.4 µM (inactive)
A498
  GI50: 29.4 µM (inactive)
SK-OV-3
  GI50: 49.5 µM (inactive)
Malme-3M
  GI50: 46.8 µM (inactive)
NCI-H226
  GI50: 33.7 µM (inactive)
CCRF-CEM
  GI50: 20 µM (inactive)
MCF7
  GI50: 49.4 µM (inactive)
DU-145
  GI50: 30.1 µM (inactive)
OVCAR-5
  GI50: 25.4 µM (inactive)
U-251
  GI50: 36.9 µM (inactive)
HT-29
  GI50: 0.889 µM (active)
786-0
  GI50: 37.2 µM (inactive)
SF-268
  GI50: 33.8 µM (inactive)
SNB-19
  GI50: 37.5 µM (inactive)
HOP-92
  GI50: > 78 µM (inactive)
TK-10
  GI50: 46.9 µM (inactive)

## O=c1ccc2ccc(O)cc2o1 [UMBELLIFERONE]
OVCAR-3
  GI50: > 100 µM (inactive)
KM12
  GI50: > 100 µM (inactive)
HCT-15
  GI50: > 100 µM
SNB-75
  GI50: > 100 µM (inactive)
BT-549
  GI50: > 100 µM (inactive)
A498
  GI50: > 100 µM (inactive)
SK-OV-3
  GI50: > 100 µM (inactive)
Malme-3M
  GI50: > 100 µM (inactive)
NCI-H226
  GI50: > 100 µM (inactive)
CCRF-CEM
  GI50: > 100 µM (inactive)
MCF7
  GI50: > 100 µM (inactive)
DU-145
  GI50: > 100 µM (inactive)
OVCAR-5
  GI50: > 100 µM (inactive)
U-251
  GI50: > 100 µM (inactive)
HT-29
  GI50: > 100 µM (inactive)
786-0
  GI50: > 100 µM (inactive)
SF-268
  GI50: > 100 µM (inactive)
SNB-19
  GI50: > 100 µM (inactive)
HOP-92
  GI50: > 100 µM (inactive)
TK-10
  GI50: > 100 µM (inactive)
